One data set concerns the target T1, NET (Rattus norvegicus, UniProt Q63380).
T1 construct: from tissue; host or cells: rat hypothalamus synaptosomes
Briefly: NE uptake inhibition assay, rat hypothalamus synaptosomes. The class given is biochemical. The note with it: read-out: NET IC50 (norepinephrine reuptake inhibition).

Data set [1] deals with noradrenergic, histaminergic and cholinergic receptors. The note with it: Sperling & Demling 1997; cited from earlier work.
For another data set, the target named is T2, 5HT2C receptor (Homo sapiens, UniProt P28335).
T2 sequence (P28335 33-458): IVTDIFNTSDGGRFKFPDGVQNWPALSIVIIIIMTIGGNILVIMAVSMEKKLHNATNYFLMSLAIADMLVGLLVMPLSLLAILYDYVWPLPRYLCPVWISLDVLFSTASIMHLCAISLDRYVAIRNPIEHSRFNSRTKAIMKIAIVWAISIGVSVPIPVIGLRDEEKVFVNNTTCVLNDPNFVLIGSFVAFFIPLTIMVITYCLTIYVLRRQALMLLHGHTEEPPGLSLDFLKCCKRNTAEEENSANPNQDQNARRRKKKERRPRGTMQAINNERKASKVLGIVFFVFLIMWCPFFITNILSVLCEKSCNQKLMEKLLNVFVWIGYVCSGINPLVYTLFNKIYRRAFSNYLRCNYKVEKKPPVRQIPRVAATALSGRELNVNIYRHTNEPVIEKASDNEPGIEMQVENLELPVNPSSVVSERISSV
As to conditions: Claghorn & Lesem 1996; cited from earlier work.

Data set [2] relates to animal models of depression. As to conditions: cited from earlier work.
The test system of another data set is REM sleep. The note with it: 25-400 mg, cited from earlier work.
The conditions of data set [3]: cited from earlier work.
For a further data set, the system named is depression. The note with it: based on HAMD score reduction; cited from earlier work.
In another data set the test system is major depression. The note with it: subsequent clinical trials; Paanakker et al. 1998; cited from earlier work.
The next data set deals with L5 SNL rats. Briefly: L5-Single Nerve Ligation model of neuropathic pain, tactile allodynia (von Frey). As to conditions: for antiallodynic effect: 8 days post surgery, 30 min post treatment, FIG. 1; for antiallodynic effect over time: tested 30, 60, 120, 240 min. The data set is classed as in vivo, rat. The protocol: Protocol. The antiallodynic activity of (+)- and (−)-beloxepin were tested in vivo using the L5-Single Nerve Ligation model of non-nociceptive neuropathic pain as described in LaBuda & Little, 2005, J. Neurosci. Methods 144:175-181. The test animals were placed in a Plexiglas chamber (10 cm×20 cm×25 cm) and habituated for 15 minutes. The chamber was positioned on top of a mesh screen so that von Frey monofilaments could be presented to the plantar surface of both hindpaws. Measurement of tactile sensitivity for each hind paw were obtained using the up/down method (Dixon, 1980, Annu. Rev. Pharmacol. Toxicol. 20:441-462) with seven Frey monofilaments (0.4, 1, 2, 4, 6, 8 and 15 grams). Each trial started with a von Frey force of 2 grams delivered to the right hind paw for approximately 1-2 seconds and then the left hind paw. If there was no withdrawal response, the next higher force was delivered. If there was a response, the next lower force was delivered. This procedure was performed until no response was made at the highest force (15 grams) or until four stimuli were administered following the initial response. The 50% paw withdrawal threshold for each paw was calculated using the following formula: [Xth]log=[vFr]log+ky, where [vFr] is the force of the last von Frey used, k=0.2249 which is the average interval (in log units) between the von Frey monofilaments, and y is a value that depends upon the pattern of withdrawal responses (Dixon, 1980, supra). […] Testing for tactile sensitivity was performed twice and the mean 50% withdrawal value assigned as the tactile sensitivity for the right and left paws for each animal.
Results. The antiallodynic effects produced by (+)-beloxepin (30 mg/kg IP) and (−)-beloxepin (30 mg·kg IP) in L5 SNL rats 8 days post surgery are illustrated in FIG. 1. In this experiment, at 8 days post surgery, rats were treated with vehicle or beloxepin enantiomers (30 mg/kg IP) and tested for tactile allodynia at 30 min post treatment. […] No side effects were observed following treatment with either enantiomer.
The antiallodynic effects produced by (+)-beloxepin (30 mg/kg IP) in L5 SNL rats 14 days post surgery are illustrated in FIG. 2. In this experiment, at 14 days post surgery, rats were treated with vehicle or (+)-beloxepin and tested for tactile allodynia at 30, 60, 120 and 240 min post treatment. Vehicle treated rats were tested at 30 min post treatment.
Protocol. A time course experiment was performed with (−)-beloxepin (60 mg/kg PO) in L5 SNL rats at 7 days post-surgery. Rats were tested at 30, 60, 120, and 240 minutes post-drug.
Protocol. A time course experiment was also performed with (+)-beloxepin (60 mg/kg PO) in L5 SNL rats at 14 days post-surgery. Rats were tested at 30, 60, 120, and 240 minutes post-drug.

In data set [4] the test system is rat hindpaw incision model. Briefly: Rat hindpaw incision model of post-operative pain, tactile allodynia. The class given is in vivo. As to conditions: 30 mg/kg IP, 24 hours post-surgery, tested 30, 60, 120, 240 min. The method, then: Protocol. A time course experiment was also performed with (−)-beloxepin in the hindpaw incision model. At 24 hours post-surgery, rats received vehicle or (−)-beloxepin (30 mg/kg IP). Rats were tested for tactile allodynia at 30, 60, 120 and 240 minutes after administration of (−)-beloxepin.
Protocol. Another time course experiment was performed with (+)-beloxepin in the hindpaw incision model. At 24 hours post-surgery, rats received vehicle or (+)-beloxepin (30 mg/kg IP). Rats were tested for tactile allodynia at 30, 60, 120 and 240 minutes after administration of (+)-beloxepin.

Data set [5] relates to rat 50° C. hot plate model. Briefly: Rat 50° C. hot plate assay. The data set is classed as in vivo. The note with it: for antinociceptive activity: 30 mg/kg IP, 30, 60 and 120 minutes after treatment. The method, then: Protocol. Rats were treated with vehicle, 30 mg/kg IP of (−)-beloxepin, or 30 mg/kg IP of (+)-beloxepin and then were placed on a hot plate (50° C.) 30, 60, or 120 minutes after administration of the vehicle or beloxepin enantiomer. Rats treated with 3 mg/kg SC of morphine and tested 30 min post-treatment were used as a positive control in these experiments.
A general note: Hot-plate and tail-flick tests time the reaction to a heat stimulus.

Each structure is given as a SMILES string. Read-outs that look alike come from different tables or passages of the source.

Results on three molecules are retold here after patent US20090233958A1, “(+)-BELOXEPIN AND METHODS FOR ITS SYNTHESIS AND USE” (priority 2008, published 2009).

The term IC50 denotes the concentration needed to halve the response being measured.

T1 sequence (Q63380 1-617): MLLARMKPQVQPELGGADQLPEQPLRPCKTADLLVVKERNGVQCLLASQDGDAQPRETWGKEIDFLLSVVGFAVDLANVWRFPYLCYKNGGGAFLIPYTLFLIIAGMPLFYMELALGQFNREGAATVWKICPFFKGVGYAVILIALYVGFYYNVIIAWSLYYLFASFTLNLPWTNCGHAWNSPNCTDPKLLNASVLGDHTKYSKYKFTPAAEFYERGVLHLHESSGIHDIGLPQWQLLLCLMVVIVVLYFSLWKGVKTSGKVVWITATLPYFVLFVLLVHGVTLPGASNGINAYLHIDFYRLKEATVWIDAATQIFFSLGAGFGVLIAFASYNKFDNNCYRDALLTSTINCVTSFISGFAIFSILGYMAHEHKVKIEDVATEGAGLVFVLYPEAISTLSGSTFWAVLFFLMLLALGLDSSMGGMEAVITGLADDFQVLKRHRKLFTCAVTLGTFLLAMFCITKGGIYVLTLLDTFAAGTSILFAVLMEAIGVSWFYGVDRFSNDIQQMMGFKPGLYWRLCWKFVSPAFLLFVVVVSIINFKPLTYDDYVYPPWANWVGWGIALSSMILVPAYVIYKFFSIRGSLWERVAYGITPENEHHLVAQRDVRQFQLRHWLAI

`Cc1cccc2c1Oc1ccccc1C1(O)CCN(C)CC21` (racemic) [(±)-beloxepin, cis-1,2,3,4,4a,13b-hexahydro-2,10-dimethyldiben-[2,3:6,7]oxepino[4,5c]pyridine-4-a-ol]]: the IC50 on NET turned out to be 130 nM. Also, the “affinity for noradrenergic, histaminergic and cholinergic receptors” value in data set [1] was “no or very weak affinity”. Besides, the “affinity for the 5HT2C receptor” value on 5HT2C receptor is “modest affinity”. In addition, the antidepressant properties result in data set [2] (acquired immobility, reserpine-induced hypothermia, conditioned avoidance) is “exhibit antidepressant properties”. For the same molecule, the “sedation, motor impairment or other side effects” value in data set [2] (preclinical depression tests) is “did not cause sedation, motor impairment or other untoward side effects”. In the data set on REM sleep (EEG), the “total duration of nocturnal REM sleep” value is “decreased”. Besides, the REM latency entry in the data set on REM sleep (acutely and sub-chronically, EEG) is listed as “dose-dependently prolonged REM latency”. In the data set on REM sleep (human volunteers), the “sedation or other side effects” value is given as “No sedation or other side effects were observed”. The adverse effects result in data set [3] (healthy volunteers, up to 800 mg/day) is reported as “No important adverse effects were observed”. The tmax in data set [3] (steady-state, doses of 50 to 800 mg, healthy normal subjects) is 1.17 h. Moreover, the “fraction of patients with moderate to good response” value in the data set on depression is “⅔”. Also, the “efficacy for the treatment of major depression” value with major depression is recorded as “insufficient efficacy”.

Consider `Cc1cccc2c1Oc1ccccc1C1(O)CCN(C)CC21` (single isomer, unassigned; (+)) [(+)-beloxepin], for which the antiallodynic effect result in the data set on L5 SNL rats (30 mg/kg IP) was “not statistically significant, (+)-beloxepin produced an antiallodynic effect that was comparable to that observed with (−)-beloxepin”. Moreover, the “maximal efficacy, % of the threshold of vehicle-treated rats” value in the data set on L5 SNL rats (30 mg/kg IP, 14 days post surgery) worked out at 423%. Moreover, the “antiallodynic effect over time” value in the data set on L5 SNL rats (30 mg/kg IP, 14 days post surgery, FIG. 2) was “significant antiallodynic effects at the 30 and 60 min time points”; with L5 SNL rats (60 mg/kg PO, 14 days post-surgery, FIG. 4), “did not produce significant antiallodynic effects at any time point”; in [4] it was “significant antiallodynic effect at the 30 and 60 minute time points”. Further, the “antinociception, % MPE values” in data set [5] (30 mg/kg IP, 30, 60, 120 min, FIG. 8) was 10-17%. In addition, the antinociceptive activity entry in [5] was “no antinociception was observed”.

Take `Cc1cccc2c1Oc1ccccc1C1(O)CCN(C)CC21` (single isomer, unassigned; (-)) [(−)-beloxepin]: the IC50 on NET ([3H]norepinephrine, rat hypothalamus synaptosomes, 20 min 37° C.) was 120 nM. The antiallodynic effect entry in the data set with L5 SNL rats (30 mg/kg IP) is recorded as “significant antiallodynia”. The “antiallodynic effect over time” value with L5 SNL rats (60 mg/kg PO, 7 days post-surgery, FIG. 3) was “significant antiallodynic effects at the 60 and 120 minute time points”; in data set [4], “significant antiallodynic effect at the 30 and 120 minute time point”. In addition, in data set [5], the antinociceptive activity entry is “robust antinociceptive activity at 30, 60, and 120 minutes after treatment”.
